# Laboratory results: patent US20250042848A1, “DEUTERATED FUNCTIONALIZED DERIVATIVES OF alpha-ALANINE, IN [sequence] FOR THE TREATMENT OF NEUROLOGICAL DISEASES” (UNIWERSYTET JAGIELLONSKI, priority 2021, published 2025)
# Key:
# [1] = system: psychomotor seizures induced by a 44 mA, 6 Hz stimulus in mice; assay: Psychomotor seizure test 6 Hz (44 mA); format: in vivo; conditions: in mg/kg
# Description: (§1) Initial screening was performed on groups of 4 mice. The mean effective dose (ED50) in a given test and the neurotoxic dose in the rotarod test (TD50) were estimated on the basis of the results obtained on 3-4 groups of animals consisting of 6 animals.
# In the psychomotor seizure test (6 Hz test), seizures were induced by a 32 mA and/or 44 mA electrical stimulus of a frequency of 6 pulses per second. An electrical pulse was generated using an electric shock generator (ECT Unit 57800; Ugo Basile, Gemonio, Italy) and delivered to the animal using corneal electrodes. Before starting the test, the eye surface was gently moistened with a solution of local anesthetic (1% lidocaine solution). The study was conducted 30 minutes/2 hours after intraperitoneal administration of the compounds at various doses. An electrical stimulus was delivered continuously for a period of 3 seconds, followed by observation of the animal for a period of 10 seconds. During the experiment, the number of animals with an episode of psychomotor convulsions was counted: motor inhibition, staggering, maintaining a sitting posture, forelimb clonus, twitching of the vibrissae and Straub-tail were observed (Leclercq, K.; Kaminski, R.M. Epilepsia 2015, 56, 310-318).
# (§2) The ED50 (effective dose) and TD50 (toxic dose) values along with the corresponding 95% confidence limits were calculated based on the Litchfield and Wilcoxon method (Litchfield, J.T.; Wilcoxon, F. J. Pharmacol. Exp. Ther. 1949, 96, 99-113). To perform a statistical evaluation of the results in the scPTZ test, one-way ANOVA variance analysis followed by Dunnett's post hoc test were used. The values were considered statistically significant if p<0.05.
# [2] = system: motor coordination of mice; assay: Rotarod test (motor coordination, acute neurotoxicity); format: in vivo; conditions: in mg/kg
# Description: as §1
# The effect of the tested compounds on motor coordination was assessed in the rotarod test (May Commat, RR 0711 RotaRod, Turkey). The day before the actual experiment, the mice were trained on a rod rotating at 10 revolutions per minute (rpm) for 3 minutes. The experiment was performed 30 minutes and 2 hours after administration of the compounds. The motor coordination of the animals was tested at the speed of the rotating rod: 10 rpm for 60 seconds. The measure of neurotoxicity was the inability to stay on the rod for a given time (Łuszczki, J.J. et al. Eur. Neuropsychopharmacol. 2005, 6, 609-616).
# as §2
# [3] = system: formalin-induced pain in mice; assay: Formalin test (tonic pain); format: in vivo; conditions: for nociceptive response, first phase of the formalin test, % of the baseline (control): phase I (0-5 min); for nociceptive response, second phase of the formalin test, % of baseline (control): phase II (15-30 min); for ED50 (dose reducing the nociceptive response by 50%), formalin test: i.p.
# Description: Pain was induced with a chemical agent by intraplantar injection of 2.5% formalin solution in mice in a constant volume of 20 μL. The animals were placed in separate, transparent observation chambers for a period of 30 minutes. The measured value was the total licking and biting time of the formalin-treated paw. The nociceptive response was counted in two time intervals: 0-5 minutes from formalin injection (phase I of the test-acute pain) and 15-30 minutes from its administration (phase II of the test-inflammatory pain). The observed inhibition of the nociceptive response-shortening the time of licking and biting the paw, was interpreted as an analgesic effect of the tested compound.
# (§3) All tests/models were performed based on procedures described in the specialist literature: formalin test (Beirith et al. Eur. J. Pharmacol. 1998, 345, 233-245), capsaicin-induced pain model (Mogilski et al. Pharmacol. Biochem. Behav. 2015, 133, 99-110), oxaliplatin-induced neuropathic pain model-von Frey's test (Sałat et al. Pharmacol. Biochem. Behav. 2014, 122, 173-181), streptozotocin-induced diabetic neuropathic pain model-von Frey's test (Sałat et al. Neuropharmacology 2017, 125, 181-188; Tanabe et al. J. Pharmacol. Sci. 2008, 107, 213-220). The test group consisted of 8-10 animals.
# [4] = system: capsaicin-induced pain in mice; assay: Capsaicin-induced pain model; format: in vivo
# Description: This test evaluated the licking and/or biting time of the hind paw after intraplantar injection of 1.6 μg of capsaicin in a constant volume of 20 μL. Observation was carried out in the period of 5 minutes after capsaicin administration. Inhibition of the nociceptive response —shortening the time of licking and biting the paw, was a measure of the antinociceptive activity of the tested compound.
# as §3
# [5] = system: oxaliplatin-induced mechanical allodynia in mice; assay: Oxaliplatin (OXPT)-induced peripheral neuropathy model, von Frey test; format: in vivo
# Description: The reaction was observed before administration and 3 hours (early phase) and 7 days (late phase) after administration of OXPT.
# as §3
# [6] = system: mouse liver microsomes (MLMs); assay: In vitro metabolic stability, mouse liver microsomes; format: in vitro ADME; conditions: 120-minute incubation with MLMs, NADPH
# Description: Metabolic stability assessment was performed using mouse (MLMs) and human (HLMs) liver microsomes purchased from Sigma-Aldrich (St. Louis, MO, USA). The detailed methodology is described in the literature (Kamiński et al. J. Med. Chem. 2015, 58, 5274-5286). The reaction mixture was prepared by mixing […] of the tested compound with mouse or human microsomes (1 mg/mL) in 10 mM TRIS-HCl buffer. The reaction mixture was pre-incubated for 5 min at 37° C. After the initial incubation, 50 μL of the NADPH Regeneration System (Promega, Madison, WI, USA) was added to initiate the reaction. The reaction mixture was then incubated for 120 min at 37° C. 200 μL of cold extra pure methanol was added to complete the reaction. The mixture was then centrifuged at 14,000 g for 15 min and the supernatants were analyzed using a Waters ACQUITY™ TQD LC/MS system with a TQ detector (Waters, Milford, USA). Each experiment was performed in triplicate.
# [7] = system: spontaneous locomotor activity of mice; conditions: mouse, in vivo
# Description: For this purpose, the number of light beam crossings in the cages was counted in each group of animals during a 30-minute observation.
# The experiments were carried out on male albino mice (CD-1) weighing 25-30 g, provided by an accredited animal facility. All procedures were performed in accordance with the applicable Polish and European guidelines on the ethics of research on animals, after obtaining the appropriate approval. The substance was administered intraperitoneally after suspension in a 1% Tween 80 solution, as single injections of 0.1 mL/10 g b.w., 30 minutes before a given test.
# The assessment of the influence of the tested compound on the spontaneous locomotor activity of animals (assessment of the sedative or activating effect) was carried out in accordance with the methodology described in the scientific literature (Mogilski et al. Inflamm. Res. 2017, 66, 79-95), using a cage with dimensions 40×40×31 cm (Activity Cage; Ugo Basile, Gemonio VA, Italy). The compound was administered 30 minutes before the experiment. The number of light beam crossings was counted in each group during the next 30 min at 10-minute intervals. The study group consisted of 10 animals.
# [8] = 0.5 h after i.p. administration
# [9] = 2.0 h after i.p. administration
# [10] = 30 mg/kg, seven days after OXPT (late phase)
# [11] = 30 mg/kg, three hours after OXPT (early phase)
# [12] = 60 mg/kg, seven days after OXPT (late phase)
# [13] = 60 mg/kg, three hours after OXPT (early phase)
# [14] = 90 mg/kg, seven days after OXPT (late phase)
# [15] = 90 mg/kg, three hours after OXPT (early phase)
compound,measurement,setting,value
"[2H]C1([2H])C(=O)N([C@H](C)C(=O)NCc2ccccc2)C(=O)C1([2H])[2H] [d4-(R)-1, (R)-N-benzyl-2-(2,5-dioxopyrrolidin-1-yl-3,3,4,4-d4) propanamide]",ED50 6 Hz (44 mA),[1]; [8],79.2
same,ED50 6 Hz (44 mA),[1]; [9],125.3
same,TD50 Rotarod,[2]; [8],176.7
same,TD50 Rotarod,[2]; [9],>300
same,"nociceptive response, first phase of the formalin test, % of the baseline (control)",[3]; i.p. 30 mg/kg,46.80%
same,"nociceptive response, second phase of the formalin test, % of baseline (control)",[3]; i.p. 30 mg/kg,46.04%
same,"nociceptive response, first phase of the formalin test, % of the baseline (control)",[3]; i.p. 60 mg/kg,49.85%
same,"nociceptive response, second phase of the formalin test, % of baseline (control)",[3]; i.p. 60 mg/kg,56.06%
same,"nociceptive response, first phase of the formalin test, % of the baseline (control)",[3]; i.p. 90 mg/kg,64.40%
same,"nociceptive response, second phase of the formalin test, % of baseline (control)",[3]; i.p. 90 mg/kg,43.36%
same,"nociceptive response, first phase of the formalin test, % of the baseline (control)",[3]; i.p. 120 mg/kg,39.68%
same,"nociceptive response, second phase of the formalin test, % of baseline (control)",[3]; i.p. 120 mg/kg,30.24%
same,"ED50 (dose reducing the nociceptive response by 50%), formalin test",[3]; phase I,97.9 mg/kg
same,"ED50 (dose reducing the nociceptive response by 50%), formalin test",[3]; phase II,71.5 mg/kg
same,"ED50, capsaicin test",[4]; i.p.,17.5 mg/kg
same,"nociceptive response in the capsaicin test, % of the initial value (control)",[4]; i.p. 30 mg/kg,31.77%
same,"nociceptive response in the capsaicin test, % of the initial value (control)",[4]; i.p. 60 mg/kg,38.72%
same,"nociceptive response in the capsaicin test, % of the initial value (control)",[4]; i.p. 90 mg/kg,10.90%
same,pain threshold (von Frey),[5]; [10],6.38 ± 0.50 g
same,"pain threshold, % of baseline",[5]; [10],123.9%
same,pain threshold (von Frey),[5]; [11],5.73 ± 0.40 g
same,"pain threshold, % of baseline",[5]; [11],111.3%
same,pain threshold (von Frey),[5]; [12],7.34 ± 0.42 g
same,"pain threshold, % of baseline",[5]; [12],119.2%
same,pain threshold (von Frey),[5]; [13],5.33 ± 0.427 g
same,"pain threshold, % of baseline",[5]; [13],86.5%
same,pain threshold (von Frey),[5]; [14],7.04 ± 0.31 g
same,"pain threshold, % of baseline",[5]; [14],110.5%
same,pain threshold (von Frey),[5]; [15],7.23 ± 0.42 g
same,"pain threshold, % of baseline",[5]; [15],113.5%
same,metabolic stability (metabolites in UPLC chromatograms),[6],no metabolites appeared
same,"locomotor activity (light beam crossings in 30 min), % of the initial value (vehicle)",[7],46.90%
